Data on four compounds can be found in patent publication US20080227806A1, “Novel Drugs for Dementia” (AMERICAN LIFE SCIENCE PHARMACEUTICALS, priority 2005, published 2008).

In one data set the test system is synaptosome Aβ. Description: Synaptosome total Aβ by ELISA after icv infusion. In kind it is in vivo. The note with it: guinea pig. The source says:
(§1) In vivo icv administration of protease inhibitors into guinea pig brains. Guinea pigs (Harley strain, 300-500 grams) were obtained from Charles River (Wilmington, Mass.). The animals were given free access to food and water before and during the experiment. An ALZET osmotic mini-pump (ALZET company, Cupertino, Calif.) was implanted subcutaneously in the mid-scapular area of the back of each animal. A catheter was connected to the osmotic mini-pump and inserted into the lateral ventricle of the brain (using a brain infusion kit manufactured by ALZET).
(§2) E64d or CA074Me (from CalBiochem, San Diego, Calif.) were each administered to guinea pig brains by icv minipump infusion at a rate of […] with each compound at 1 mg/ml in saline (with 1.5% DMSO). Each e64d and control group consisted of five animals; each CA074Me and control group consisted of ten animals. Continuous infusion was conducted for 7 days and 30 days. At the end of each infusion period, animals were sacrificed and half the brain was prepared as extracts for ELISA measurement of Aβ peptide levels conducted in triplicate with Ab ELISAs (from Biosource International). The other half brain was used for isolation of synaptosome preparations and Ab analyses.
(§3) Brain Extracts. Brain extracts were prepared by subjecting fresh tissues to homogenization at 1:10 w/v in guanidine buffer consisting of 5 M guanidine-HCl in 50 mM Tris-HCl, pH 8.3 (buffer reagents from Sigma-Aldrich, St. Louis, Mo.). Homogenates were agitated at room temperature for 3-4 hours, then stored at −20° C. The day before the ELISA assay, the tissue samples were diluted further by 1:10 for a final guanidine concentration of 0.5 M. These diluted homogenates were then centrifuged at 14,000 rpm for 20 minutes at 4° C. and supernatants were collected for measurement of total Ab, and Aβ40 and Aβ42 separately, by ELISA assay. Isolation of synaptosomes from brain. Synaptosomes were prepared by homogenization of fresh brain tissue in isotonic sucrose (320 mM), pH 7.4, 1 mM EDTA, 0.25 mM dithiothreitol, and 30 U/ml RNAse inhibitor. […] For quantitation of Aβ peptides, ELISA assays were used to measure Aβ levels. […] CTFβ fragments derived from APP were analyzed by western blots with antibody MAB 1560 (Chemicon, Temecula, Calif.). The sAPPα fragment derived from APP was analyzed by western blots with antibody MAB 343 (Chemicon, Temecula, Calif.). […]
(§4) Data Analyses. Data were analyzed by one-way analysis of variance for analyses of statistical significance of the effects of compounds on Ab levels, with p<0.05 indicating statistical significance, using GraphPad Prism software program. Following ANOVA analyses among treatment groups, individual group values for Ab levels were analyzed using Dunnett's multiple comparison test. […]

For data set [1] the following is noted: rats, high dose; cited from earlier work.
The conditions of data set [2]: Japan; cited from earlier work.
The conditions of data set [3]: Phase III study; cited from earlier work.
The test system of another data set is total Aβ (Ab40 and Ab42). Description: Brain total Aβ by ELISA after icv infusion into guinea pig brains. In kind it is in vivo. The note with it: constant icv infusion, 1 mg/ml.
Source text: as §1, §2, §3, §4

For a further data set, the system named is hippocampus neurons. The note with it: primate ischemic animal model; cited from earlier work.
A further data set has as its system Aβ40. The experiment in a line: Brain Aβ40 by specific ELISA after icv infusion. It counts as in vivo. The settings on record: guinea pig, 7 days.
Source text: (§5) In vivo icv administration of protease inhibitors into guinea pig brains. Guinea pigs (Harley strain, 300-500 grams) were obtained from Charles River (Wilmington, Mass.). The animals were given free access to food and water before and during the experiment. An ALZET osmotic mini-pump (ALZET company, Cupertino, Calif.) was implanted subcutaneously in the mid-scapular area of the back of each animal. A catheter was connected to the osmotic mini-pump and inserted into the lateral ventricle of the brain (using a brain infusion kit manufactured by ALZET). […]
(§6) Brain Extracts. […] For quantitation of Aβ peptides, ELISA assays were used to measure Aβ levels. […] CTFβ fragments derived from APP were analyzed by western blots with antibody MAB 1560 (Chemicon, Temecula, Calif.). The sAPPα fragment derived from APP was analyzed by western blots with antibody MAB 343 (Chemicon, Temecula, Calif.). […]
as §4
For orientation: In an ELISA, binding on a coated surface is turned into a signal by an enzyme label.

The next data set has as its system CTFβ. The experiment in a line: Brain CTFβ by western blot densitometry after icv infusion. It counts as in vivo. The settings on record: guinea pig, 7 days, densitometric scanning of western blots.
Source text: as §5, §6, §4
A general note: Immunoblotting shows a protein as a band on a membrane.

In a further data set the test system is sAPPα. Description: Brain sAPPα by western blot densitometry after icv infusion. In kind it is in vivo. The settings on record: guinea pig, 7 days, densitometric scanning of western blots.
Source text: as §5, §6, §4

A further data set deals with Aβ42. The experiment in a line: Brain Aβ42 by specific ELISA after icv infusion. In kind it is in vivo. The note with it: guinea pig, 7 days.
Source text: as §5, §6, §4

Where “and” joins values, the source holds several entries; their conditions need not be identical. Equal entries are not always repeated.

As to `CCOC(=O)[C@H]1O[C@@H]1C(=O)N[C@@H](CC(C)C)C(=O)NCCC(C)C` [E64d, oxiranecarboxylic acid, 3-[[[(1S)-3-methyl-1-[[(3-methylbutyl)amino]carbonyl]butyl]amino]carbonyl], ethyl ester], the figures for the “reduction of synaptosome Aβ relative to controls” value in the data set on synaptosome Aβ (7 days) and in the data set with synaptosome Aβ (30 days) were 27% and 50%, respectively. Besides, the liver toxicity result in [1] is on record as “liver toxicity was found”. For the same compound, the “Phase I clinical trial outcome” value in data set [2] is “successfully passed Phase I clinical trials”. Moreover, the “efficacy for muscular dystrophy” value in [3] is listed as “low efficacy for muscular dystrophy”. The “reduction of brain total Aβ relative to control” value turned out to be 31% in the data set on total Aβ (Ab40 and Ab42) (7 days); 55% with total Aβ (Ab40 and Ab42) (30 days).
Regarding `CCCNC(=O)C1OC1C(=O)NC(C(=O)N1CCCC1C(=O)O)C(C)CC` (centres unmarked) [CA074, 1-{3-methyl-2-[(3-propylcarbamoyl-oxiranecarbonyl)-amino]-pentanoyl}-pyrrolidine-2-carboxylic acid], the “protection of brain neurons during ischemia” value in the data set with hippocampus neurons is recorded as “protect hippocampus neurons from damage”.
For `CC(C)CCNC(=O)C(CC(C)C)NC(=O)C1OC1C(=O)O` (centres unmarked) [e64c, 3-[3-methyl-1-(3-methyl-butylcarbamoyl)-butylcarbamoyl]-oxirane-2-carboxylic acid], the “protection of brain neurons during ischemia” value in the data set with hippocampus neurons is “protect hippocampus neurons from damage”.
Consider `CCCNC(=O)[C@H]1O[C@@H]1C(=O)N[C@H](C(=O)N1CCC[C@H]1C(=O)OC)[C@@H](C)CC` [CA074Me, L-Proline, N[[(2S,3S)3[(propylamino)carbonyl]oxiranyl]carbonyl]-L-isoleucyl-, methyl ester], for which the “reduction of synaptosome Aβ relative to controls” value is given as 62% in the data set on synaptosome Aβ (7 days) and 74% in the data set on synaptosome Aβ (30 days). Besides, the “reduction of Aβ40 in brain extracts” value in the data set on Aβ40 is reported as 47%. Besides, the “reduction in brain CTFβ relative to controls” value in the data set with CTFβ is 45% and 44%. The “increase in brain sAPPα above control” value in the data set on sAPPα is reported as 60%. In addition, the “reduction of brain total Aβ relative to control” value worked out at 57% with total Aβ (Ab40 and Ab42) (7 days); 62% with total Aβ (Ab40 and Ab42) (30 days). Also, the “reduction of Aβ42 in brain” value in the data set with Aβ42 turned out to be 56%.
